US11229204B2, “Herbicidal composition comprising at least one phenolic active compound” (UNIVERSITÉ DE LIÈGE, priority 2018, dated 2022)

Assays:
[1] = tested on: Raphanus sativus and Lepidium sativum; settings: 27 flavonoids tested; only poor results on radical elongation for the highest tested concentration of 10^−4M; cited from earlier work
[2] = tested on: Trifolium incarnatum; assay: Pre-emergence activity, experiment n° 2: hypocotyl and root lengths of seeds on moistened filter paper; format: in vivo; settings: 100 mg/L in methanol 1%
Protocol: Seeds of Trifolium incarnatum were obtained from ECOSEM industry (Belgium). Filter papers were placed in petri dishes and moistened with 2 ml of methanol 1% solution for the seedling control, or with myricitrin solution at 100 mg/L in methanol 1% for the treated seedling. Methanol was identified as a solvent not interfering with the pre-emergence of plants. Ten seeds of Trifolium incarnatum were then placed immediately in each petri dish and three replicates were prepared. All petri dishes were randomly placed in a growth chamber at a temperature of 23±1° C., in the dark and the hypocotyls and root lengths were measured after 7 days.

Row | SMILES | effect on germination and radical elongation [1] | seed germination compared with control ([2]; 7 incubation days) | development of roots and hypocotyls ([2]; 7 days (FIG. 5)) | phytotoxic effect on the pre-emergence in comparison with the control ([2]; 7 days, 23±1° C., dark (FIG. 5))
1 | COc1c(-c2ccccc2)oc2ccccc2c1=O [3-OCH3-flavone] | act on germination and on radical elongation |  |  | 
2 | COc1ccc(-c2cc(=O)c3ccccc3o2)cc1OC [3′,4′-di-OCH3-flavone] | act on germination and on radical elongation |  |  | 
3 | C[C@@H]1O[C@@H](Oc2c(-c3cc(O)c(O)c(O)c3)oc3cc(O)cc(O)c3c2=O)[C@H](O)[C@H](O)[C@H]1O [myricitrin] |  | inhibited seed germination | inhibited | significant phytotoxic effect
4 | O=C1C[C@@H](c2ccccc2)Oc2cc(O)cc(O)c21 [pinocembrin, 5,7-di-OH-flavanone] | act on germination and on radical elongation |  |  | 
5 | O=c1c(O)c(-c2ccc(O)c(O)c2)oc2cc(O)cc(O)c12 [quercetin, 3,5,7,3′,4′-penta-OH-flavone] | act on germination and on radical elongation |  |  | 
